Results as given in PubChem BioAssay AID1259407 (Chemical Carcinogenesis Research Information System (CCRIS), 2018).
Calls of active or inactive are those of the source. The rule behind the calls is not given here.

Tested on: CCRIS mutagenicity, Ames/micronucleus/aberration tests
Experiment: CCRIS mutagenicity studies
[1] = Test System: AMES SALMONELLA TYPHIMURIUM, Strain/Indicator: TA98, Metabolic Activation: NONE, Method: PREINCUBATION
[2] = Test System: AMES SALMONELLA TYPHIMURIUM, Strain/Indicator: TA100, Metabolic Activation: NONE, Method: PREINCUBATION
[3] = Test System: AMES SALMONELLA TYPHIMURIUM, Strain/Indicator: TA1535, Metabolic Activation: NONE, Method: PREINCUBATION
[4] = Test System: AMES SALMONELLA TYPHIMURIUM, Strain/Indicator: TA1537, Metabolic Activation: NONE, Method: PREINCUBATION
[5] = Test System: MOUSE LYMPHOMA, Strain/Indicator: L5178Y (TK+/TK-), Metabolic Activation: NONE, Method: SUSPENSION/PLATE
[6] = Test System: MOUSE LYMPHOMA, Strain/Indicator: L5178Y (TK+/TK-), Metabolic Activation: RAT, LIVER, S-9, AROCLOR 1254, Method: SUSPENSION/PLATE
[7] = Test System: AMES SALMONELLA TYPHIMURIUM, Strain/Indicator: TA1538, Metabolic Activation: NONE, Method: PREINCUBATION

SMILES: c1cnc2c(c1)ccc1cccnc12
- mutagenic call (Test System: AMES SALMONELLA TYPHIMURIUM, Strain/Indicator: TA98, Metabolic Activation: HAMSTER, LIVER, S-9, AROCLOR 1254 (10%), Method: PREINCUBATION): inactive; negative
- mutagenic call [1]: inactive; negative
- mutagenic call (Test System: AMES SALMONELLA TYPHIMURIUM, Strain/Indicator: TA98, Metabolic Activation: RAT, LIVER, S-9, AROCLOR 1254 (10%), Method: PREINCUBATION): inactive; negative
- mutagenic call (Test System: AMES SALMONELLA TYPHIMURIUM, Strain/Indicator: TA100, Metabolic Activation: HAMSTER, LIVER, S-9, AROCLOR 1254 (10%), Method: PREINCUBATION): inactive; negative
- mutagenic call [2]: inactive; negative
- mutagenic call (Test System: AMES SALMONELLA TYPHIMURIUM, Strain/Indicator: TA100, Metabolic Activation: RAT, LIVER, S-9, AROCLOR 1254 (10%), Method: PREINCUBATION): inactive; negative
- mutagenic call (Test System: AMES SALMONELLA TYPHIMURIUM, Strain/Indicator: TA100, Metabolic Activation: RAT, LIVER, S-9, PHENOBARBITAL AND 5,6-BENZOFLAVONE, Method: PREINCUBATION): inactive; negative
- mutagenic call (Test System: AMES SALMONELLA TYPHIMURIUM, Strain/Indicator: TA1535, Metabolic Activation: HAMSTER, LIVER, S-9, AROCLOR 1254 (10%), Method: PREINCUBATION): inactive; negative
- mutagenic call [3]: inactive; negative
- mutagenic call (Test System: AMES SALMONELLA TYPHIMURIUM, Strain/Indicator: TA1535, Metabolic Activation: RAT, LIVER, S-9, AROCLOR 1254 (10%), Method: PREINCUBATION): inactive; negative
- mutagenic call (Test System: AMES SALMONELLA TYPHIMURIUM, Strain/Indicator: TA1537, Metabolic Activation: HAMSTER, LIVER, S-9, AROCLOR 1254 (10%), Method: PREINCUBATION): inactive; negative
- mutagenic call [4]: inactive; negative
- mutagenic call (Test System: AMES SALMONELLA TYPHIMURIUM, Strain/Indicator: TA1537, Metabolic Activation: RAT, LIVER, S-9, AROCLOR 1254 (10%), Method: PREINCUBATION): inactive; negative
- mutagenic call [5]: active; positive. reevaluation of results: positive
- mutagenic call [6]: active; positive. reevaluation of results: positive

SMILES: COc1ccc(NC(C)=O)cc1N
- mutagenic call (End Point: IN VITRO CHROMOSOMAL ABERRATIONS, Test System: CHL CELLS, Metabolic Activation: RAT, LIVER, S-9, SODIUM PHENOBARBITAL AND 5,6-BENZOFLAVONE): active; positive (structural changes); authors report equivocal results for ploidy chang
- mutagenic call [1]: inactive; negative
- mutagenic call (Test System: AMES SALMONELLA TYPHIMURIUM, Strain/Indicator: TA98, Metabolic Activation: RAT, LIVER, S-9, PHENOBARBITAL AND BETA-NAPHTHOFLAVONE, Method: PREINCUBATION): active; positive
- mutagenic call [2]: inactive; negative
- mutagenic call (Test System: AMES SALMONELLA TYPHIMURIUM, Strain/Indicator: TA100, Metabolic Activation: RAT, LIVER, S-9, PHENOBARBITAL AND BETA-NAPHTHOFLAVONE, Method: PREINCUBATION): active; positive

SMILES: CNC(=O)CNC(=O)C=[N+]=[N-]
- mutagenic call (Test System: UDS RODENT CELLS, Strain/Indicator: THY INCORP (NON-S-PHASE), Metabolic Activation: NONE, Method: AUTORADIOGRAPHY): active; positive

SMILES: Cc1cc(N)sn1
- mutagenic call (Test System: AMES SALMONELLA TYPHIMURIUM, Strain/Indicator: TA102, Metabolic Activation: RAT, LIVER, S-9, AROCLOR 1254, HAMSTER, LIVER, S-9, AROCLOR 1254, Method: PREINCUBATION): active; positive
- mutagenic call (Test System: AMES SALMONELLA TYPHIMURIUM, Strain/Indicator: TA1538, Metabolic Activation: HAMSTER, LIVER, S-9, AROCLOR 1254 (5, 10%), Method: STANDARD PLATE): active; positive
- mutagenic call (Test System: AMES SALMONELLA TYPHIMURIUM, Strain/Indicator: TA1538, Metabolic Activation: HAMSTER, LIVER, S-9, AROCLOR 1254, Method: STANDARD PLATE): active; positive
- mutagenic call [5]: active; positive. reevaluation of results: inconclusive
- mutagenic call [6]: active; positive. reevaluation of results: equivocal

SMILES: O=Nc1nc[nH]c1-c1ccccc1
- mutagenic call (Test System: AMES SALMONELLA TYPHIMURIUM, Strain/Indicator: TA100, Metabolic Activation: NONE, Method: STANDARD PLATE): active; positive

SMILES: O=C(O)C(F)(F)C(F)(Cl)C(F)(F)C(F)(Cl)C(F)(F)C(F)(Cl)C(F)(F)Cl (configuration not stated)
- mutagenic call [1]: inactive; negative
- mutagenic call (Test System: AMES SALMONELLA TYPHIMURIUM, Strain/Indicator: TA98, Metabolic Activation: RAT, LIVER, S-9, Method: PREINCUBATION): inactive; negative
- mutagenic call [2]: inactive; negative
- mutagenic call (Test System: AMES SALMONELLA TYPHIMURIUM, Strain/Indicator: TA100, Metabolic Activation: RAT, LIVER, S-9, Method: PREINCUBATION): inactive; negative
- mutagenic call [3]: inactive; negative
- mutagenic call (Test System: AMES SALMONELLA TYPHIMURIUM, Strain/Indicator: TA1535, Metabolic Activation: RAT, LIVER, S-9, Method: PREINCUBATION): inactive; negative
- mutagenic call [4]: inactive; negative
- mutagenic call (Test System: AMES SALMONELLA TYPHIMURIUM, Strain/Indicator: TA1537, Metabolic Activation: RAT, LIVER, S-9, Method: PREINCUBATION): inactive; negative
- mutagenic call [7]: inactive; negative
- mutagenic call (Test System: AMES SALMONELLA TYPHIMURIUM, Strain/Indicator: TA1538, Metabolic Activation: RAT, LIVER, S-9, Method: PREINCUBATION): inactive; negative
- mutagenic call (Test System: CHINESE HAMSTER OVARY, Strain/Indicator: CHO-K1-BH4 (HGPRT), Metabolic Activation: NONE, Method: STANDARD PLATE): inactive; negative
- mutagenic call (Test System: CHINESE HAMSTER OVARY, Strain/Indicator: CHO-K1-BH4 (HGPRT), Metabolic Activation: RAT, LIVER, S-9, Method: STANDARD PLATE): inactive; negative
- mutagenic call (Test System: UDS RODENT HEPATOCYTES, Strain/Indicator: THY INCORP (NON-S-PHASE), Metabolic Activation: NONE, Method: AUTORADIOGRAPHY): inactive; negative

SMILES: C1CN(SSN2CCOCC2)CCO1
- mutagenic call [1]: inactive; negative
- mutagenic call (Test System: AMES SALMONELLA TYPHIMURIUM, Strain/Indicator: TA98, Metabolic Activation: RAT LIVER S-9, PHENOBARBITAL AND BETA-NAPHTHOFLAVONE, Method: PREINCUBATION): inactive; negative
- mutagenic call [2]: inactive; negative
- mutagenic call (Test System: AMES SALMONELLA TYPHIMURIUM, Strain/Indicator: TA100, Metabolic Activation: RAT LIVER S-9, PHENOBARBITAL AND BETA-NAPHTHOFLAVONE, Method: PREINCUBATION): inactive; negative
- mutagenic call [3]: inactive; negative
- mutagenic call (Test System: AMES SALMONELLA TYPHIMURIUM, Strain/Indicator: TA1535, Metabolic Activation: RAT LIVER S-9, PHENOBARBITAL AND BETA-NAPHTHOFLAVONE, Method: PREINCUBATION): inactive; negative
- mutagenic call [4]: inactive; negative
- mutagenic call (Test System: AMES SALMONELLA TYPHIMURIUM, Strain/Indicator: TA1537, Metabolic Activation: RAT LIVER S-9, PHENOBARBITAL AND BETA-NAPHTHOFLAVONE, Method: PREINCUBATION): inactive; negative
- mutagenic call [7]: inactive; negative
- mutagenic call (Test System: AMES SALMONELLA TYPHIMURIUM, Strain/Indicator: TA1538, Metabolic Activation: RAT LIVER S-9, PHENOBARBITAL AND BETA-NAPHTHOFLAVONE, Method: PREINCUBATION): inactive; negative
- mutagenic call (Test System: E.COLI, Strain/Indicator: WP2UVRA, Metabolic Activation: NONE, Method: PREINCUBATION): inactive; negative
- mutagenic call (Test System: E.COLI, Strain/Indicator: WP2UVRA, Metabolic Activation: RAT LIVER S-9, PHENOBARBITAL AND BETA-NAPHTHOFLAVONE, Method: PREINCUBATION): inactive; negative
